Patent US20040121947A1, “Compounds which inhibit beta-secretase activity and methods of use thereof” (Oklahoma Medical Research Foundation, priority 2000, published 2004)
Read-outs that look alike come from different tables or passages of the source.

Target: T1, memapsin 2 (Homo sapiens, UniProt P56817)
T1 construct: pET-11 vector-derived residues 1-15 of promemapsin 2-T1 (N, cleaved yes); made in house; host or cells: E. coli
Test: Inhibition of memapsin 2 proteolytic activity, fluorogenic substrate FS-2
Format: biochemical
Conditions: for Vi/Vo: ratio of initial cleavage velocities of FS-2 with/without compound, enzyme and inhibitor concentrations equal (e.g., about 80 nM, 100 nM)
Method: Ki is the inhibition equilibrium constant which indicates the ability of compounds to inhibit the β-secretase activity of memapsin 2 and memapsin 1. […] The K1 value is independent of the substrate, and converted from Ki apparent.
The Vi/Vo values depicted in Table 1 were determined at conditions under which the enzyme and inhibitor concentrations were equal (e.g., about 80 nM, 100 nM).
The relationship of Ki (independent of substrate concentration) to Kiapp is a function of substrate concentration in the assay and the Km for cleavage of the substrate by either memapsin 1 or memapsin 2 by the relationship:
The spontaneously activated memapsin 2 was employed in assays to assess the inhibition of memapsin 2 relative to memapsin 1 by compounds of the invention and in some crystallization studies.
An aliquot of the inhibitor of known concentration in DMSO was diluted into 1.8 ml 0.1 M NaOAc, pH 4.0. DMSO and added to a final concentration of 10% (v/v), and memapsin 2 (final concentration of 80 nM), followed by a 20 minute equilibration at 37° C. Compounds were evaluated for the ability to inhibit memapsin 1 and memapsin 2 at concentrations between about 10 nM and about 10 μm of inhibitor.

[1] = memapsin 2, apparent Ki in presence of substrate FS-2, read-out: Ki app
[2] = memapsin 2, independent of substrate, converted from Ki apparent, read-out: Ki
[3] = memapsin 2, apparent Ki in presence of substrate FS-2
[4] = memapsin 2, independent of substrate, converted from Ki apparent

T1 sequence (P56817 41-454 limits assumed): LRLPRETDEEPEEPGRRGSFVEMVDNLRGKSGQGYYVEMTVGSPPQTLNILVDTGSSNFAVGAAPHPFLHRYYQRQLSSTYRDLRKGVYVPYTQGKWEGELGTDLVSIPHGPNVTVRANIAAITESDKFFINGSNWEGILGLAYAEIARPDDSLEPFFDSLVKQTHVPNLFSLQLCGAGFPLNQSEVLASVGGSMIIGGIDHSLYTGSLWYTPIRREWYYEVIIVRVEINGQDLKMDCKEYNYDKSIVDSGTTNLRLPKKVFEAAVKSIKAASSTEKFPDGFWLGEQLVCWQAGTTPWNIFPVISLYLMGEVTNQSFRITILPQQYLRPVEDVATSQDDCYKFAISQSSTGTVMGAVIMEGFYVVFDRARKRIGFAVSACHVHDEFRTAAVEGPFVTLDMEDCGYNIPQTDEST

Row | Compound | Ki [1] [nM] | Ki [2] [nM] | other results
1 | CSCC[C@H](NC(=O)OC(C)(C)Cn1nc(C)cc1C)C(=O)N[C@@H](CC(C)C)[C@@H](O)C[C@@H](C)C(=O)N[C@@H](CC(C)C)C(=O)NC(C)C [MMI-219] | 1420 | 889 | 
2 | CSCC[C@H](NS(=O)(=O)c1ccc(CO)cc1)C(=O)N[C@@H](Cc1ccccc1)[C@@H](O)C[C@@H](C)C(=O)N[C@H](C(=O)NCc1ccccc1)C(C)C [MMI-048] | 54800 | 34200 | 
3 | CSCC[C@H](NC(=O)[C@@H](NC(=O)OC(C)(C)C)C(C)C)C(=O)N[C@@H](CC(C)C)[C@@H](O)C[C@@H](C)C(=O)N[C@H]1CCCC[C@@H]1O [MMI-055] |  | 394000 | 
4 | CSCC[C@H](NC(=O)OCc1ncc(C)n1C)C(=O)N[C@@H](CC(C)C)[C@@H](O)C[C@@H](C)C(=O)N[C@H](C(=O)NCC(C)C)C(C)C [MMI-188] | 230 | 144 | 
5 | CSCC[C@H](NC(=O)[C@@H](NC(=O)OC(C)(C)C)C(C)C)C(=O)N[C@@H](CC(C)C)[C@@H](O)C[C@@H](C)C(=O)N[C@@H](C(C)C)C1CC(Cc2ccccc2)CCO1 (stereo partly shown) [MMI-147] |  |  | Vi/Vo: 1.1
6 | CSCCC(NC(=O)[C@@H](NC(=O)OC(C)(C)C)C(C)C)C(=O)N[C@@H](CC(C)C)[C@@H](O)C[C@@H](C)C(=O)N[C@H](C(=O)NCc1ccccc1)[C@H](C)O (stereo partly shown) [MMI-081] |  |  | Vi/Vo: 0.87
7 | CSCC[C@H](NC(=O)CCn1nc(C)cc1C)C(=O)N[C@@H](CC(C)C)[C@@H](O)C[C@@H](C)C(=O)N[C@H](C(=O)NCc1ccco1)C(C)C [MMI-213] | 84.6 | 52.9 | 
8 | CSCC[C@H](NC(=O)[C@@H](NC(=O)OC(C)(C)C)C(C)C)C(=O)N[C@@H](CC(C)C)[C@@H](O)C[C@]1(C)CCN([C@@H](CC(C)C)C(=O)NCC(C)C)C1=O [MMI-191] |  |  | Ki app [3]: N.I.; Ki [4]: N.I.
9 | CSCC[C@H](NC(=O)[C@@H](NC(=O)OC(C)(C)C)C(C)C)C(=O)N[C@@H](CC(C)C)[C@@H](O)C[C@H](C(=O)N[C@H](C(=O)NCc1ccccc1)C(C)C)C(C)C [MMI-202] | 688 | 430 | 
10 | CSCC[C@H](NC(=O)[C@H](CC(C)C)NC(=O)OC(C)(C)C)C(=O)N[C@@H](CC(C)C)[C@H](O)C[C@H](C)C(=O)N[C@H](C(=O)NCc1ccccc1)C(C)C [MMI-133] | 0.52 | 0.33 | Vi/Vo: 0.09
11 | CSC[C@H](NC(=O)OCc1ccccn1)C(=O)N[C@@H](CC(C)C)[C@@H](O)C[C@@H](C)C(=O)N[C@@H](CC(C)C)C(=O)NCc1ccccc1 [MMI-124] |  |  | Vi/Vo: 0.93
12 | CC(C)C[C@H](NC(=O)[C@@H]1CC(=O)NCCCCOC(=O)N[C@@H](C(C)C)C(=O)N1)[C@@H](O)C[C@@H](C)C(=O)N[C@H](C(=O)NCc1ccccc1)C(C)C [MMI-150] |  |  | Vi/Vo: 0.8
13 | COCC[C@H](NC(=O)C(Cn1nc(C)cc1C)C(C)C)C(=O)N[C@@H](CC(C)C)[C@@H](O)C[C@@H](C)C(=O)N[C@H](C(=O)NCC(C)C)C(C)C (stereo partly shown) [MMI-228] | 176 | 110 | 
14 | CSCC[C@H](NC(=O)[C@@H](NC(=O)OC(C)(C)C)C(C)C)C(=O)N[C@@H](CC(C)C)[C@@H](O)C[C@H](C(=O)N[C@@H](C)C(=O)NCc1ccccc1)C(C)C [MMI-211] | 761 | 476 | 
15 | CSCC[C@H](NC(=O)OCCn1nc(C)c2c1CS(=O)(=O)C2)C(=O)N[C@@H](CC(C)C)[C@@H](O)C[C@@H](C)C(=O)N[C@@H](CC(C)C)C(=O)NC(C)C [MMI-222] | 2450 | 1530 | 
16 | CSCC[C@H](NC(=O)[C@@H](NC(=O)OC(C)(C)C)C(C)C)C(=O)N[C@@H](CC(C)C)[C@@H](O)C[C@@H](C)C(=O)N[C@@H](C(C)C)C1CC(Cc2ccccc2)CC(=O)O1 (stereo partly shown) [MMI-141] | 30000 | 18800 | 

Row | Compound | Ki [1] [nM] | Ki [2] [nM] | other results
17 | CSCC[C@H](NC(=O)[C@@H](NC(=O)OC(C)(C)C)C(C)C)C(=O)N[C@@H](CC(C)C)[C@@H](O)C[C@]1(C)CCN([C@H](C(=O)NCC(C)C)C(C)C)C1=O [MMI-187] |  |  | Ki app [3]: N.I.; Ki [4]: N.I.
18 | CSCC[C@H](NC(=O)OCCn1nc(C)cc1C)C(=O)N[C@@H](CC(C)C)[C@@H](O)C[C@@H](C)C(=O)N[C@@H](CC(C)C)C(=O)NC(C)C [MMI-203] | 361 | 225 | 
19 | CSCC[C@H](NC(=O)[C@@H](NC(=O)OC(C)(C)C)C(C)C)C(=O)N[C@@H](CC(C)C)[C@@H](O)C[C@@H](C)C(=O)N[C@H](C(=O)NCc1ccccc1)C1CCCO1 (stereo partly shown) [MMI-034] | 223 | 139 | 
20 | CSCC[C@H](NC(=O)CCn1nc(C)cc1C)C(=O)N[C@@H](CC(C)C)[C@@H](O)C[C@@H](C)C(=O)N[C@H](C(=O)NCC(C)C)C(C)C [MMI-194] | 62.3 | 38.9 | 
21 | CC(C)C[C@H](NC(=O)[C@H](CCS(C)(=O)=O)NC(=O)[C@@H](NC(=O)OC(C)(C)C)C(C)C)[C@@H](O)C[C@@H](C)C(=O)N1CCC[C@H]1C(=O)NCc1ccccc1 [MMI-045] |  |  | Ki app [3]: N.I.; Ki [4]: N.I.
22 | CC(C)C[C@H](NC(=O)[C@H](C)C[C@H](O)[C@H](CC(C)C)NC(=O)[C@H](CS(C)(=O)=O)NC(=O)OCc1cccnc1)C(=O)NCc1ccccc1 [MMI-143] |  |  | Vi/Vo: 1
23 | CSCC[C@@H](NC(=O)[C@H](CC(C)C)NC(=O)OC(C)(C)C)C(=O)N[C@@H](CC(C)C)[C@@H](O)C[C@@H](C)C(=O)N[C@H](C(=O)NCc1ccccc1)C(C)C [MMI-104] | 831 | 520 | 
24 | CC(C)C[C@H](NC(=O)OC(C)(C)C)[C@@H](O)C[C@@H](C)C(=O)N[C@@H](C)C(=O)N[C@@H](CCS(C)(=O)=O)C(=O)NCc1ccccc1 [MMI-003] |  | 1.66e+06 | 
25 | CSCC[C@H](NC(=O)[C@@H](NC(=O)OC(C)(C)C)C(C)C)C(=O)N[C@@H](CC(C)C)[C@@H](O)C[C@@H](C)C(=O)N[C@H](C(=O)NCc1cccnc1)C(C)C [MMI-087] | 905 | 565 | 
26 | CSCC[C@H](NC(=O)OCc1cc(C)nn1C)C(=O)N[C@@H](CC(C)C)[C@@H](O)C[C@@H](C)C(=O)N[C@H](C(=O)NCC(C)C)C(C)C [MMI-193] | 288 | 180 | 
27 | CSC[C@H](NC(=O)[C@@H](NC(=O)OC(C)(C)C)C(C)C)C(=O)N[C@@H](CC(C)C)[C@@H](O)C[C@@H](C)C(=O)N[C@H](C(=O)NCc1ccccc1)C(C)C [MMI-025] | 65.5 | 40.9 | 
28 | CCCCNC(=O)[C@@H](NC(=O)C(C)(C)C[C@H](O)[C@H](CC(C)C)NC(=O)[C@H](CCSC)NC(=O)OCn1nc(C)cc1C)C(C)C [MMI-218] | 1800 | 1120 | Ki (Ki, [I] < 100, memapsin 2, [I] < 100 (nM)): 226 nM
29 | CSCC[C@H](NC(=O)[C@@H](NC(=O)OC(C)(C)C)C(C)C)C(=O)N[C@@H](CC(C)C)[C@@H](O)C[C@]1(C)CCN([C@H](C(=O)N2CCN(C)CC2)C(C)C)C1=O [MMI-192] | 374 | 234 | 
30 | CSCC[C@H](NC(=O)OCn1nc(C)cc1C)C(=O)N[C@@H](CC(C)C)[C@@H](O)C[C@@H](C)C(=O)N[C@H](C(=O)N1CCN(C)CC1)C(C)C [MMI-217] | 1070 | 670 | 
31 | Cc1c(O)cccc1C(=O)N[C@H](C(=O)N[C@@H](CCS(C)(=O)=O)C(=O)N[C@@H](CC(C)C)[C@@H](O)C[C@@H](C)C(=O)N[C@@H](CC(C)C)C(=O)NCc1ccccc1)C(C)C [MMI-122] |  |  | Vi/Vo: 1.17
32 | CSCC[C@H](NC(=O)OCCn1nc(C)c2c1CCC2)C(=O)N[C@@H](CC(C)C)[C@@H](O)C[C@@H](C)C(=O)N[C@@H](CC(C)C)C(=O)NC(C)C [MMI-220] | 4490 | 2810 | 
